Experimental data: ChEMBL document CHEMBL3045979, “Synthesis and antimicrobial activities of highly functionalised novel -lactam and thiazolidine-grafted tetrahydrobenzothiophenes” (2013)

What was measured:
Type in all cases: functional
Aspergillus niger = assay: Antifungal activity against Aspergillus niger ATCC 16404 assessed as growth inhibition at 10 ug/mL after 72 hr by agar cup plate method; details: ATCC 16404, 72 h, read-out: DIZ
Escherichia coli = assay: Antibacterial activity against Escherichia coli ATCC 35218 assessed as growth inhibition at 10 ug/mL after 24 hr by agar disc diffusion method; details: ATCC 35218, 24 h, read-out: DIZ
Bacillus spizizenii = assay: Antibacterial activity against Bacillus subtilis subsp. spizizenii ATCC 6633 assessed as growth inhibition at 10 ug/mL after 24 hr by agar disk diffusion method; details: ATCC 6633, 24 h, read-out: DIZ
Aspergillus fumigatus = assay: Antifungal activity against Aspergillus fumigatus ATCC 28212 assessed as growth inhibition at 10 ug/mL after 72 hr by agar cup plate method; details: ATCC 28212, 72 h, read-out: DIZ

Compound	zone of inhibition at 10 µg/mL (Aspergillus niger)	zone of inhibition at 10 µg/mL (Escherichia coli)	zone of inhibition at 10 µg/mL (Bacillus spizizenii)	zone of inhibition at 10 µg/mL (Aspergillus fumigatus)
CS(=O)(=O)Nc1sc2c(c1C(=O)NN1C(=O)CSC1c1ccccc1Cl)CCCC2 (stereo unspecified)	20 mm	11 mm	6 mm	6 mm
COc1ccc(C2SCC(=O)N2NC(=O)c2c(NS(C)(=O)=O)sc3c2CCCC3)cc1OC (stereo unspecified)	12 mm	7 mm	6 mm	6 mm
CS(=O)(=O)Nc1sc2c(c1C(=O)NN1C(=O)CSC1c1ccc([N+](=O)[O-])cc1)CCCC2 (stereo unspecified)	15 mm	10 mm	8 mm	8 mm
CS(=O)(=O)Nc1sc2c(c1C(=O)NN1C(=O)CSC1c1coc3ccccc3c1=O)CCCC2 (stereo unspecified)	12 mm	7 mm	7 mm	4 mm
CS(=O)(=O)Nc1sc2c(c1C(=O)NN1C(=O)CSC1c1cc3ccccc3nc1Cl)CCCC2 (stereo unspecified)	19 mm	8 mm	6 mm	8 mm
CS(=O)(=O)Nc1sc2c(c1C(=O)NN1C(=O)C(Cl)C1c1ccccc1)CCCC2 (stereo unspecified)	13 mm	6 mm	6 mm	4 mm
CS(=O)(=O)Nc1sc2c(c1C(=O)NN1C(=O)C(Cl)C1c1ccccc1Cl)CCCC2 (stereo unspecified)	15 mm	7 mm	7 mm	6 mm
CS(=O)(=O)Nc1sc2c(c1C(=O)NN1C(=O)C(Cl)C1c1cccc([N+](=O)[O-])c1)CCCC2 (stereo unspecified)	18 mm	10 mm	7 mm	8 mm
COc1ccc(C2C(Cl)C(=O)N2NC(=O)c2c(NS(C)(=O)=O)sc3c2CCCC3)cc1 (stereo unspecified)	12 mm	8 mm	6 mm	6 mm
CS(=O)(=O)Nc1sc2c(c1C(=O)NN1C(=O)C(Cl)C1c1ccc(Cl)cc1)CCCC2 (stereo unspecified)	13 mm	9 mm	8 mm	5 mm
COc1ccc(C2C(Cl)C(=O)N2NC(=O)c2c(NS(C)(=O)=O)sc3c2CCCC3)cc1OC (stereo unspecified)	21 mm	8 mm	7 mm	9 mm
CS(=O)(=O)Nc1sc2c(c1C(=O)NN1C(=O)C(Cl)C1c1ccc([N+](=O)[O-])cc1)CCCC2 (stereo unspecified)	16 mm	10 mm	8 mm	6 mm
CS(=O)(=O)Nc1sc2c(c1C(=O)NN1C(=O)C(Cl)C1c1c[nH]c3ccccc13)CCCC2 (stereo unspecified)	12 mm	9 mm	7 mm	7 mm
CS(=O)(=O)Nc1sc2c(c1C(=O)NN1C(=O)C(Cl)C1c1coc3ccccc3c1=O)CCCC2 (stereo unspecified)	14 mm	8 mm	6 mm	7 mm
CS(=O)(=O)Nc1sc2c(c1C(=O)NN1C(=O)C(Cl)C1c1cc3ccccc3nc1Cl)CCCC2 (stereo unspecified)	22 mm	6 mm	6 mm	6 mm
CS(=O)(=O)Nc1sc2c(c1C(=O)NN1C(=O)CSC1c1ccccc1)CCCC2 (stereo unspecified)	9 mm	6 mm	5 mm	5 mm
CS(=O)(=O)Nc1sc2c(c1C(=O)NN1C(=O)CSC1c1cccc([N+](=O)[O-])c1)CCCC2 (stereo unspecified)	14 mm	7 mm	7 mm	6 mm
COc1ccc(C2SCC(=O)N2NC(=O)c2c(NS(C)(=O)=O)sc3c2CCCC3)cc1 (stereo unspecified)	14 mm	11 mm	5 mm	6 mm
CS(=O)(=O)Nc1sc2c(c1C(=O)NN1C(=O)CSC1c1ccc(Cl)cc1)CCCC2 (stereo unspecified)	13 mm	8 mm	8 mm	7 mm
CS(=O)(=O)Nc1sc2c(c1C(=O)NN1C(=O)CSC1c1c[nH]c3ccccc13)CCCC2 (stereo unspecified)	18 mm	10 mm	6 mm	6 mm
O=C(O)c1cn(C2CC2)c2cc(N3CCNCC3)c(F)cc2c1=O [CIPROFLOXACIN]	–	12 mm	9 mm	–
Clc1ccccc1C(c1ccccc1)(c1ccccc1)n1ccnc1 [CLOTRIMAZOLE]	21 mm	–	–	20 mm
CC(=O)N1CCN(c2ccc(OCC3COC(Cn4ccnc4)(c4ccc(Cl)cc4Cl)O3)cc2)CC1 (stereo unspecified) [KETOCONAZOLE]	25 mm	–	–	10 mm
